The values that follow come from US20260265251A1 (priority 2023, published 2026).

One assay relates to SK-MEL-3 cells. Put plainly: SK-MEL-3 cell proliferation assay. The class given is cell-based. Conditions: Homo sapiens, SK-MEL3, 72 h, read-out: SK-MEL-3 IC50.
For `N#Cc1ccc(N2CCc3nc4[nH]c(=O)[nH]c4cc3C2)cc1F` [Example 53, 7-(3-fluoro-4-cyanophenyl)-1,3,5,6,7,8-hexahydro-2H-imidazo[4,5-b][1,6]naphthyridin-2-one], the IC50 came to 9.6 nM.

The same assay, now with this note: Homo sapiens, SK-MEL3; SK-MEL-3 cells, 72 hours, CellTiter-Glo; read-out: SK-MEL-3 IC50.
`Cc1ccc(-c2ccc3nc4[nH]c(=O)[nH]c4cc3c2F)cc1` [Example 68, 8-fluoro-7-(p-tolyl)-1,3-dihydro-2H-imidazo[4,5-b]quinolin-2-one]: the IC50 was 2 nM. Still for that read-out and setting: with `Cc1ccc(-c2ccc3nc4[nH]c(=O)[nH]c4cc3c2Cl)cc1` [Example 1, 8-chloro-7-(p-tolyl)-1,3-dihydro-2H-imidazo[4,5-b]quinolin-2-one] the figure was 0.4 nM. The same measure, in the same setting: with `O=c1[nH]c2cc3c(Cl)c(N4CCC5(CC4)CC5)ccc3nc2[nH]1` [Example 81, 8-chloro-7-(6-azaspiro[2.5]octan-6-yl)-1,3-dihydro-2H-imidazo[4,5-b]quinolin-2-one] the figure was 9.7 nM; with `Cc1ccc(-c2ccc3nc4[nH]c(=O)[nH]c4cc3c2C(F)(F)F)cc1` [Example 79, 7-(p-tolyl)-8-(trifluoromethyl)-1,3-dihydro-2H-imidazo[4,5-b]quinolin-2-one], 0.4 nM. Same read-out and setting: with `O=c1[nH]c2cc3c(Cl)c(-c4ccccc4)ccc3nc2[nH]1` [Example 65, 8-chloro-7-phenyl-1,3-dihydro-2H-imidazo[4,5-b]quinolin-2-one] the figure was 0.8 nM; with `N#Cc1ccc(-c2ccc3nc4[nH]c(=O)[nH]c4cc3c2Cl)cc1` [Example 75, 8-chloro-7-(4-cyanophenyl)-1,3-dihydro-2H-imidazo[4,5-b]quinolin-2-one], 0.5 nM; with `O=c1[nH]c2cc3c(Cl)c(-c4ccc(F)cc4Cl)ccc3nc2[nH]1` [Example 83, 8-chloro-7-(2-chloro-4-fluorophenyl)-1,3-dihydro-2H-imidazo[4,5-b]quinolin-2-one], 0.4 nM. On to `O=c1[nH]c2cc3c(Cl)c(-c4ccc(F)cc4)ccc3nc2[nH]1` [Example 66, 8-chloro-7-(4-fluorophenyl)-1,3-dihydro-2H-imidazo[4,5-b]quinolin-2-one], for which the IC50 was determined as 0.9 nM. Turning to `COc1cc(Cl)c(-c2ccc3nc4[nH]c(=O)[nH]c4cc3c2)cn1` [Example 8, 7-(4-chloro-6-methoxypyridin-3-yl)-1,3-dihydro-2H-imidazo[4,5-b]quinolin-2-one], the half-maximal inhibitory concentration (IC50) came out at 2.1 nM. As for `O=c1[nH]c2cc3c(Cl)c(-c4ccc(C(F)F)cn4)ccc3nc2[nH]1` [Example 74, 8-chloro-7-(5-(difluoromethyl)pyridin-2-yl)-1,3-dihydro-2H-imidazo[4,5-b]quinolin-2-one], the IC50 was determined as 0.7 nM. Regarding `Nc1cc(-c2ccc3nc4[nH]c(=O)[nH]c4cc3c2)ccn1` [Example 26, 7-(2-aminopyridin-4-yl)-1,3-dihydro-2H-imidazo[4,5-b]quinolin-2-one], the IC50 stood at 74.6 nM. As to `O=c1[nH]c2cc3c(Cl)c(-c4ncc(F)cn4)ccc3nc2[nH]1` [Example 71, 8-chloro-7-(5-fluoropyrimidin-2-yl)-1,3-dihydro-2H-imidazo[4,5-b]quinolin-2-one], the IC50 was 8.2 nM. Same read-out and setting: with `O=c1[nH]c2cc3cc(-c4ncc(F)cc4Cl)ccc3nc2[nH]1` [Example 10, 7-(3-chloro-5-fluoropyridin-2-yl)-1,3-dihydro-2H-imidazo[4,5-b]quinolin-2-one] the figure was 1.8 nM; with `O=c1[nH]c2cc3c(Cl)c(N4CC5(CCC5)C4)ccc3nc2[nH]1` [Example 76, 8-chloro-7-(2-azaspiro[3.3]heptan-2-yl)-1,3-dihydro-2H-imidazo[4,5-b]quinolin-2-one], 2.3 nM. For `O=c1[nH]c2cc3cc(-c4ccc(F)cc4)ccc3nc2[nH]1` [Example 9, 7-(4-fluorophenyl)-1,3-dihydro-2H-imidazo[4,5-b]quinolin-2-one], the IC50 is 1.7 nM. Still for that read-out and setting: with `O=c1[nH]c2cc3c(nc2[nH]1)CCN(c1ccc(OC(F)(F)F)cc1Cl)C3` [Example 54, 7-(2-chloro-4-(trifluoromethoxy)phenyl)-1,3,5,6,7,8-hexahydro-2H-imidazo[4,5-b][1,6]naphthyridin-2-one] the figure was 198 nM; with `Cc1cc(F)ccc1-c1ccc2nc3[nH]c(=O)[nH]c3cc2c1` [Example 4, 7-(4-fluoro-2-methylphenyl)-1,3-dihydro-2H-imidazo[4,5-b]quinolin-2-one], 1.7 nM. `O=c1[nH]c2cc3c(OC(F)F)c(-c4ccc(F)cc4)ccc3nc2[nH]1` [Example 77, 8-(difluoromethoxy)-7-(4-fluorophenyl)-1,3-dihydro-2H-imidazo[4,5-b]quinolin-2-one]: the IC50 was 4.4 nM.

Take `Cc1ccc(-c2ccc3nc4c(cc3c2Cl)C(=O)C(=O)N4)cc1` [Example 95, 5-chloro-6-(p-tolyl)-1H-pyrrolo[2,3-b]quinolin-2,3-dione]: the IC50 stood at 55.5 nM.

Take `COc1ccc(-c2ccc3nc4[nH]c(=O)[nH]c4cc3c2Cl)cn1` [Example 72, 8-chloro-7-(6-methoxypyridin-3-yl)-1,3-dihydro-2H-imidazo[4,5-b]quinolin-2-one]: the IC50 turned out to be 1 nM.

With `O=c1[nH]c2cc3c(Cl)c(-c4ccc(C(F)F)cc4)ccc3nc2[nH]1` [Example 67, 8-chloro-7-(4-(difluoromethyl)phenyl)-1,3-dihydro-2H-imidazo[4,5-b]quinolin-2-one], the IC50 was found to be 0.4 nM. Same read-out and setting: the same measure for `Cc1ccc(-c2cc3cc4[nH]c(=O)[nH]c4nc3cc2Cl)cc1` [Example 69, 6-chloro-7-(p-tolyl)-1,3-dihydro-2H-imidazo[4,5-b]quinolin-2-one]: 9.7 nM. Turning to `CCC1=CCN(c2ccc3nc4[nH]c(=O)[nH]c4cc3c2Cl)CC1` [Example 82, 8-chloro-7-(4-ethyl-3,6-dihydropyridin-1(2H)-yl)-1,3-dihydro-2H-imidazo[4,5-b]quinolin-2-one], the IC50 is 509 nM. With `COc1ncc(N2CCc3nc4[nH]c(=O)[nH]c4cc3C2)cc1C(F)(F)F` [Example 91, 7-(6-methoxy-5-(trifluoromethyl)pyridin-3-yl)-1,3,5,6,7,8-hexahydro-2H-imidazo[4,5-b][1,6]naphthyridin-2-one], the IC50 is 281 nM. Same read-out and setting: the same measure for `Cc1ccc(-c2ccc3nc4[nH]c(=O)[nH]c4cc3c2Cl)nc1` [Example 70, 8-chloro-7-(5-methylpyridin-2-yl)-1,3-dihydro-2H-imidazo[4,5-b]quinolin-2-one]: 2.9 nM; for `O=c1[nH]c2cc3cc(-c4c(Cl)ncn4C(F)F)ccc3nc2[nH]1` [Example 38, 7-(4-chloro-1-(difluoromethyl)-1H-imidazol-5-yl)-1,3-dihydro-2H-imidazo[4,5-b]quinolin-2-one]: 4.7 nM; for `O=c1[nH]c2cc3c(Cl)c(-c4ccc(Cl)nn4)ccc3nc2[nH]1` [Example 73, 8-chloro-7-(6-chloropyridazin-3-yl)-1,3-dihydro-2H-imidazo[4,5-b]quinolin-2-one]: 1.6 nM. In the case of `COc1cc(F)ccc1-c1ccc2nc3[nH]c(=O)[nH]c3cc2c1` [Example 6, 7-(4-fluoro-2-methoxyphenyl)-1,3-dihydro-2H-imidazo[4,5-b]quinolin-2-one], the IC50 worked out at 3.6 nM. Still for that read-out and setting: the same measure for `COc1c(-c2ccc(F)cc2Cl)ccc2nc3[nH]c(=O)[nH]c3cc12` [Example 85, 7-(2-chloro-4-fluorophenyl)-8-methoxy-1,3-dihydro-2H-imidazo[4,5-b]quinolin-2-one]: 0.3 nM; for `COc1c(-c2ccc(F)cc2)ccc2nc3[nH]c(=O)[nH]c3cc12` [Example 78, 8-(methoxy)-7-(4-fluorophenyl)-1,3-dihydro-2H-imidazo[4,5-b]quinolin-2-one]: 0.9 nM; for `COc1ccc(-c2ccc3nc4[nH]c(=O)[nH]c4cc3c2)c(Cl)n1` [Example 7, 7-(2-chloro-6-methoxypyridin-3-yl)-1,3-dihydro-2H-imidazo[4,5-b]quinolin-2-one]: 0.4 nM. The same measure, in the same setting: with `O=c1[nH]c2cc3cc(-c4cnn(C(F)(F)F)c4)ccc3nc2[nH]1` [Example 29, 7-(1-(trifluoromethyl)-1H-pyrazol-4-yl)-1,3-dihydro-2H-imidazo[4,5-b]quinolin-2-one] the figure was 6.6 nM; with `N#Cc1ccc(N2CCc3nc4[nH]c(=O)[nH]c4cc3C2)c(F)c1` [Example 52, 7-(2-fluoro-4-cyanophenyl)-1,3,5,6,7,8-hexahydro-2H-imidazo[4,5-b][1,6]naphthyridin-2-one], 4.1 nM; with `O=c1[nH]c2cc3cc(-c4c(Cl)cnn4C(F)F)ccc3nc2[nH]1` [Example 16, 7-(4-chloro-1-(difluoromethyl)-1H-pyrazol-5-yl)-1,3-dihydro-2H-imidazo[4,5-b]quinolin-2-one], 1.6 nM. As to `O=c1[nH]c2cc3c(nc2[nH]1)CCN(c1ccccc1)C3` [Example 20, 7-phenyl-1,3,5,6,7,8-hexahydro-2H-imidazo[4,5-b][1,6]naphthyridin-2-one], the IC50 is 4.5 nM.

Regarding `O=c1[nH]c2cc3c(nc2[nH]1)CCN(c1cccc(OC(F)(F)F)c1)C3` [Example 55, 7-(3-(trifluoromethoxy)phenyl)-1,3,5,6,7,8-hexahydro-2H-imidazo[4,5-b][1,6]naphthyridin-2-one], the IC50 is 15.6 nM. For the molecule `O=c1[nH]c2cc3cc(-c4ccc(F)cc4C(F)(F)F)ccc3nc2[nH]1` [Example 5, 7-(4-fluoro-2-(trifluoromethylphenyl))-1,3-dihydro-2H-imidazo[4,5-b]quinolin-2-one], the IC50 is 2.8 nM.

As for `O=c1[nH]c2cc3c(nc2[nH]1)CCN(c1ccc(Cl)cc1Cl)C3` [Example 47, 7-(2,4-dichlorophenyl)-1,3,5,6,7,8-hexahydro-2H-imidazo[4,5-b][1,6]naphthyridin-2-one], the IC50 came out at 2.7 nM. Consider `O=c1[nH]c2cc3cc(-c4cnn(C(F)F)c4)ccc3nc2[nH]1` [Example 11, 7-(1-(difluoromethyl)-1H-pyrazol-4-yl)-1,3-dihydro-2H-imidazo[4,5-b]quinolin-2-one], for which the IC50 worked out at 0.8 nM. Consider `O=c1[nH]c2cc3c(nc2[nH]1)CCN(c1ccc(C(F)F)cc1Cl)C3` [Example 46, 7-(2-chloro-4-(difluoromethyl)phenyl)-1,3,5,6,7,8-hexahydro-2H-imidazo[4,5-b][1,6]naphthyridin-2-one], for which the IC50 was found to be 1.2 nM.
